Consider two compounds from patent US20060111305A1, “Metabolites of certain [1,4]diazepino[6,7,1-ij]quinoline derivatives and methods of preparation and use thereof” (Wyeth, priority 2004, published 2006).

Like-named read-outs stand apart in the source and are kept apart here.

Data set [1] can be described thus: Dog urinary excretion and metabolite profiles after oral capsule of [14C]DCDQ. The data set is classed as in vivo, beagle dogs. As for the experimental part:
Blood samples were collected from the jugular vein at 2, 4, 8, 24 and 48 hour after dose administration into tubes containing potassium EDTA as the anticoagulant and then placed on ice. Aliquots of 50 μL were removed for combustion and determination of radioactivity content. Plasma was immediately obtained from the remaining blood by centrifugation at 4° C. Urine samples were collected into tubes on dry ice at intervals of 0-8, 8-24 and 24-48 hour post-dose. Fecal samples were collected at intervals of 0-8, 8-24 and 24-48 hour post-dose at room temperature, and were homogenized. The biological specimens were stored at approximately −70° C. until analysis.
(§1) For plasma profiles, a TopCount NXT radiometric microplate reader (Perkin Elmer) was used to analyze the radioactivity in collected HPLC fractions. The limit of detection by TopCount was about 1 ng equivalent/mL. A Flo-One β Model A525 radioactivity detector (Perkin Elmer) with a 250 μL LQTR flow cell was used to acquire data for urine and fecal samples. The flow rate of Ultima Flow M scintillation fluid was 1 mL/min, providing a mixing ratio of scintillation cocktail to mobile phase of 5:1. The limits of detection by Flo-One detector were about 200 ng equivalents/mL for urine and 12 ng equivalents/g for feces.
Urine was analyzed for radioactivity concentration and analyzed by HPLC with radioactivity flow detection for metabolite profiles by direct injection to the HPLC column. LC/MS analyses for metabolite identification were also carried out with urine samples.
(§2) A Waters model 2690 HPLC system (Waters Corp., Milford, Mass.) with a built-in autosampler was used for analysis. Separations were accomplished on a Phenomenex Luna C18(2) column (150×2.0 mm, 5 μm) (Phenomenex, Torrance, Calif.). The sample chamber of the autosampler was maintained at 4° C., while the column was at ambient temperature of about 20° C. A variable wavelength UV detector set to monitor 250 nm and a Flo-One β Model A525 radioactivity detector were used for data acquisition. The HPLC mobile phase consisted of 10 mM ammonium acetate, pH 4.5 (A) and acetonitrile (B), and was delivered at 0.2 mL/min. Chromatographic condition A was used for dose analysis, while condition B was used for analysis of urine and plasma, brain and fecal extracts.

A short description of data set [2]: Dog plasma metabolite profiles after single 15 mg/kg oral capsule of [14C]DCDQ. In kind it is in vivo, beagle dogs. As for the experimental part:
as §1
Plasma samples were analyzed for metabolite profiles by HPLC. Aliquots of plasma were mixed with two volumes of cold methanol containing 0.1% trifluoroacetic acid (TFA), placed on ice for about 2 minutes and then centrifuged. The supernatant fluid was transferred to a clean tube and evaporated at 22° C. under nitrogen in a Zymark TurboVap LV (Caliper Life Sciences, Hopkinton, Mass.) to a volume of about 0.3 mL. The residue was centrifuged, the supernatant volume measured and extraction efficiency determined by analysis of duplicate 20 μL aliquots for radioactivity. A 200 μL aliquot of the supernatant was injected onto the HPLC column and the effluent was collected at 20 second intervals into 96-well Lumaplates (Perkin Elmer). The plates were dried overnight in an oven at 40° C. and analyzed by a TopCount. Plasma extracts were also analyzed by LC/MS.
as §2

The mark [3] stands for this setting: male, beagle, dog, plasma, oral, 15 mg/kg, 4 hr, dog 1, read-out: Estimated plasma concentration in dogs.
Where [4] appears, read: male, beagle, dog, plasma, oral, 15 mg/kg, 4 hr, dog 2, read-out: Estimated plasma concentration in dogs.
Setting [5] is: male, beagle, dog, plasma, oral, 15 mg/kg, 24 hr, dog 1, read-out: Estimated plasma concentration in dogs.

For `c1cc2c3c(c1)[C@H]1CCC[C@H]1CN3CCNC2` [DCDQ, (9aR,12aS)-4,5,6,7,9,9a,10,11,12,12a-decahydro-cyclopenta[c][1,4]diazepine[6,7,1-ij]quinoline, reference compound], the “Chromatographic distribution of radioactivity in dog urine” value is 9.5% in data set [1] (8-24 hr, dog 1); 11% in data set [1] (8-24 hr, dog 3); 3.4% in data set [1] (24-48 hr, Mean); 3.8% in data set [1] (24-48 hr, dog 1); 3.0% in data set [1] (24-48 hr, dog 3); 6.9% in data set [1] (24-48 hr, dog 4). In addition, the “Chromatographic distribution of radioactivity in dog plasma” value in data set [2] (2 hr, dog 1) was 11%; in data set [2] (2 hr, dog 2) it was 1.9%; in data set [2] (4 hr, dog 1), 11%; in data set [2] (4 hr, dog 2), 21%; in data set [2] (8 hr, dog 1) it was 2.7%; in data set [2] (24 hr, dog 1) it was 2.6%. Further, the “Chromatographic distribution of radioactivity in dog plasma” value in data set [2] (24 hr, dog 3) is given as 2.3%. Also, the “Estimated plasma concentration in dogs” value in data set [2] (8 hr, dog 2) is “BQL”; in data set [2] (8 hr, dog 3) it was “BQL”; in data set [2] (24 hr, dog 2) it was “BQL”; in data set [2] (48 hr, dog 1), “BQL”; in data set [2] (48 hr, dog 2), “BQL”; in data set [2] (48 hr, dog 3) it was “BQL”. For the same compound, the concentration at 2 h in data set [2] (male, beagle, dog, plasma, oral, 15 mg/kg, 2 hr, dog 1, read-out: Estimated plasma concentration in dogs) was 39.6 ng/mL; in data set [2] (male, beagle, dog, plasma, oral, 15 mg/kg, 2 hr, dog 2, read-out: Estimated plasma concentration in dogs), 23.2 ng/mL. Also, the concentration at 4 h was 52.5 ng/mL in data set [2] (setting [3]) and 345 ng/mL in data set [2] (setting [4]). The concentration at 8 h in data set [2] (male, beagle, dog, plasma, oral, 15 mg/kg, 8 hr, dog 1, read-out: Estimated plasma concentration in dogs) was 14.5 ng/mL. The concentration at 24 h is 39.6 ng/mL in data set [2] (setting [5]) and 43.8 ng/mL in data set [2] (male, beagle, dog, plasma, oral, 15 mg/kg, 24 hr, dog 3, read-out: Estimated plasma concentration in dogs).
Turning to `O=C1CC[C@@H]2c3cccc4c3N(CCNC4)C[C@H]12` [Metabolite M7, 17-keto DCDQ], the “Chromatographic distribution of radioactivity in dog urine” value in data set [1] (24-48 hr, Mean) is recorded as 5.9%; in data set [1] (24-48 hr, dog 1), 5.0%; in data set [1] (24-48 hr, dog 2), 6.2%; in data set [1] (24-48 hr, dog 3) it was 9.2%; in data set [1] (24-48 hr, dog 4), 3.4%. Further, the “Estimated plasma concentration in dogs” value is reported as “BQL” in data set [2] (2 hr, dog 1); “BQL” in data set [2] (2 hr, dog 2); “BQL” in data set [2] (8 hr, dog 1); “BQL” in data set [2] (8 hr, dog 2); “BQL” in data set [2] (8 hr, dog 3); “BQL” in data set [2] (24 hr, dog 3). Besides, the “Estimated plasma concentration in dogs” value in data set [2] (48 hr, dog 1) is reported as “BQL”; in data set [2] (48 hr, dog 2), “BQL”; in data set [2] (48 hr, dog 3), “BQL”. The “Chromatographic distribution of radioactivity in dog plasma” value was found to be 6.9% in data set [2] (4 hr, dog 1); 7.8% in data set [2] (4 hr, dog 2); 13% in data set [2] (24 hr, dog 1); 6.7% in data set [2] (24 hr, dog 2). Further, the concentration at 4 h in data set [2] (setting [3]) is 34.5 ng/mL; in data set [2] (setting [4]), 127 ng/mL. For the same compound, the concentration at 24 h in data set [2] (setting [5]) is 202 ng/mL; in data set [2] (male, beagle, dog, plasma, oral, 15 mg/kg, 24 hr, dog 2, read-out: Estimated plasma concentration in dogs), 73.6 ng/mL.
